Experimental data taken from US11484539B2, “Compounds and their uses for alleviating menopause-associated symptoms” (Estetra SPRL, priority 2018, dated 2022).

Test system: post-menopausal women
Experiment: Weekly frequency of moderate to severe VMS, dose-finding study
Assay type: in vivo
Details: for Difference with placebo, LS adjusted mean, absolute change in weekly frequency of moderate to severe VMS / Difference with placebo, LS adjusted mean, relative change in weekly frequency of moderate to severe VMS: 10 mg E4 vs placebo; for Differences with placebo (including ineffective doses 2.5 mg and 5 mg), relative change in weekly frequency of moderate to severe VMS, LS adjusted mean / Differences with placebo (including ineffective doses 2.5 mg and 5 mg), relative change in weekly frequency of moderate to severe VMS, p_value: 10.0 mg vs 0 mg; for Relative change in weekly frequency of moderate to severe VMS, LS adjusted mean: analysis with placebo grouped with 2.5 and 5 mg; for LS adjusted mean change from baseline in weekly frequency of moderate to severe VMS / LS adjusted mean relative change (%) from baseline in weekly frequency of moderate to severe VMS: 15 mg E4
Source text: To determine the Minimum Effective Dose (MED), firstly the selection criteria required that patients presented at least 7 moderate to severe VMS/day or at least 50 moderate to severe VMS/week in the week preceding randomization. Secondly, a placebo group was included in a double-blind fashion. Thirdly, the total patient number was such that statistical significance could be obtained between separate arms of the study. Fourthly, the absolute change from baseline in weekly frequency of moderate to severe VMS was taken into account. An analysis of covariance (ANCOVA) was performed based on the untransformed change in weekly frequency of moderate to severe VMS from baseline. Finally, the change in severity from baseline was evaluated. For this, the Severity Scoring System of VMS was documented by the subjects as follows: • a score of Mild (1) for a sensation of heat without sweating; • a score of Moderate (2) for a sensation of heat with sweating/the subject is able to continue activity; and • a score of Severe (3) for a sensation of heat with sweating/which causes cessation of activity.
Enrolment was approximately 18 months. Individual subject participation was up to 27 weeks: up to 6 weeks pre-screening and washout, up to 4 weeks screening and run-in period, up to 91 days (13 weeks) of E4/placebo treatment followed by 2 weeks (14 days) of progestin therapy and a Follow up visit 1 week after completion of progestin therapy in non-hysterectomised subjects only.
To define the minimum effective dose (MED) of the oral dose of E4 by evaluating changes in frequency and in severity of moderate to severe vasomotor symptoms (VMS).
This was a prospective, multicentre, randomised, placebo-controlled, double-blinded, dose-finding study.
Eligible subjects were hysterectomised and non-hysterectomised post-menopausal women aged 40 to 65 years, inclusive, presenting at least 7 moderate to severe hot flushes/day or at least 50 moderate to severe hot flushes/week.
The subjects have met all of the following inclusion criteria at the randomization visit. These criteria were assessed during the screening period: • 1. Women aged 40 to 65 years, inclusive, presenting at least 7 moderate to severe hot flushes/day or at least 50 moderate to severe hot flushes/week in the week preceding randomization. • 2. Body Mass Index (BMI) between 18.0 and 35.0 kg/m^2, inclusive. • 3. Post-menopausal status defined as levels of follicle stimulating hormone (FSH) >40 IU/L and: • amenorrhoea for at least 12 consecutive months or, • amenorrhoea for at least 6 months with estradiol (E2)<20 pg/mL or, • at least 6 weeks post-surgical bilateral oophorectomy with or without hysterectomy with a copy of the pathology report or a statement on letterhead from the subject's physician documenting both ovaries were removed is required. • 4. For non-hysterectomised women: intact uterus with bi-layer endometrial thickness […] on TVUS. • 5. Negative pregnancy test. • 6. Good physical and mental health, in the judgement of the Principal Investigator (PI), on the basis of medical, surgical and gynaecological history, physical examination, gynaecological examination, clinical laboratory, and vital signs. • 7. Subject has provided signed and dated written informed consent before admission to the study. • 8. Subject is able to understand and comply with the protocol requirements, instructions, and protocol-stated restrictions. Exclusion Criteria:
All treatments (Estetrol, hereinafter, E4, [2.5 mg, 5 mg, 10 mg, 15 mg] capsule) were administered once daily (QD) per os for at least 12 consecutive weeks until the last biological assessments (Day 91 maximum) had been performed.
In order to analyse the data recorded in this study, treatment groups have been compared using an ANCOVA (analysis of covariance) with respect to the change in weekly frequency of moderate to severe VMS from baseline to weeks 4 and 12. […]

[1] = week 4, ANCOVA with study centre
[2] = week 12, ANCOVA with study centre

C[C@]12CC[C@@H]3c4ccc(O)cc4CC[C@H]3[C@@H]1[C@@H](O)[C@@H](O)[C@@H]2O [E4, 1,3,5 (10)-estratrien-3,15alpha,16alpha,17beta-tetrol]
Mean change from baseline in weekly frequency of moderate to severe VMS (10 mg E4 QD per os, week 8): −44.46 | Relative change (% from baseline) in weekly frequency of moderate to severe VMS, mean (10 mg E4 QD per os, week 8): −68% | Mean change from baseline in weekly frequency of moderate to severe VMS (10 mg E4 QD per os, week 9): −45.19 | Relative change (% from baseline) in weekly frequency of moderate to severe VMS, mean (10 mg E4 QD per os, week 9): −69% | Mean change from baseline in weekly frequency of moderate to severe VMS (10 mg E4 QD per os, week 10): −45.93 | Relative change (% from baseline) in weekly frequency of moderate to severe VMS, mean (10 mg E4 QD per os, week 10): −70% | Mean change from baseline in weekly frequency of moderate to severe VMS (10 mg E4 QD per os, week 11): −45.90 | Relative change (% from baseline) in weekly frequency of moderate to severe VMS, mean (10 mg E4 QD per os, week 11): −70% | Mean change from baseline in weekly frequency of moderate to severe VMS (10 mg E4 QD per os, week 12): −47.21 | Relative change (% from baseline) in weekly frequency of moderate to severe VMS, mean (10 mg E4 QD per os, week 12): −72% | Difference with placebo, LS adjusted mean, absolute change in weekly frequency of moderate to severe VMS [1]: −1.571 | Difference with placebo, LS adjusted mean, relative change in weekly frequency of moderate to severe VMS [1]: −0.05376 | Difference with placebo, LS adjusted mean, absolute change in weekly frequency of moderate to severe VMS (week 4, without site effect): −2.222 | Difference with placebo, LS adjusted mean, relative change in weekly frequency of moderate to severe VMS (week 4, without site effect): −0.06517 | Difference with placebo, LS adjusted mean, absolute change in weekly frequency of moderate to severe VMS [2]: −2.103 | Difference with placebo, LS adjusted mean, relative change in weekly frequency of moderate to severe VMS [2]: −0.05804 | Difference with placebo, LS adjusted mean, absolute change in weekly frequency of moderate to severe VMS (week 12, without site effect): −2.603 | Difference with placebo, LS adjusted mean, relative change in weekly frequency of moderate to severe VMS (week 12, without site effect): −0.06624 | Differences with placebo (including ineffective doses 2.5 mg and 5 mg), relative change in weekly frequency of moderate to severe VMS, LS adjusted mean (week 4): −0.07645 | Differences with placebo (including ineffective doses 2.5 mg and 5 mg), relative change in weekly frequency of moderate to severe VMS, p_value (week 4): 0.2615 | Differences with placebo (including ineffective doses 2.5 mg and 5 mg), relative change in weekly frequency of moderate to severe VMS, LS adjusted mean (week 12): −0.08276 | Differences with placebo (including ineffective doses 2.5 mg and 5 mg), relative change in weekly frequency of moderate to severe VMS, p_value (week 12): 0.1798 | Relative change (% from baseline) in weekly frequency of moderate to severe VMS, mean (10 mg, Week 12): −72% | Relative change (% from baseline) in weekly frequency of moderate to severe VMS, mean (10 mg, week 0): 0% | Relative change (% from baseline) in weekly frequency of moderate to severe VMS, mean (10 mg, week 1): −21% | Relative change (% from baseline) in weekly frequency of moderate to severe VMS, mean (10 mg, week 2): −37% | Relative change (% from baseline) in weekly frequency of moderate to severe VMS, mean (10 mg, week 3): −48% | Relative change (% from baseline) in weekly frequency of moderate to severe VMS, mean (10 mg, week 4): −55% | Relative change in weekly frequency of moderate to severe VMS, LS adjusted mean (10 mg, week 4): −0.5442 | Relative change (% from baseline) in weekly frequency of moderate to severe VMS, mean (10 mg, week 5): −60% | Relative change (% from baseline) in weekly frequency of moderate to severe VMS, mean (10 mg, week 6): −65% | Relative change (% from baseline) in weekly frequency of moderate to severe VMS, mean (10 mg, week 7): −66% | Relative change (% from baseline) in weekly frequency of moderate to severe VMS, mean (10 mg, week 8): −68% | Relative change (% from baseline) in weekly frequency of moderate to severe VMS, mean (10 mg, week 9): −69% | Relative change (% from baseline) in weekly frequency of moderate to severe VMS, mean (10 mg, week 10): −70% | Relative change (% from baseline) in weekly frequency of moderate to severe VMS, mean (10 mg, week 11): −70% | Relative change in weekly frequency of moderate to severe VMS, LS adjusted mean (10 mg, week 12): −0.7008 | LS adjusted mean change from baseline in weekly frequency of moderate to severe VMS [1]: −43.6 | LS adjusted mean relative change (%) from baseline in weekly frequency of moderate to severe VMS [1]: -64.7% | LS adjusted mean change from baseline in weekly frequency of moderate to severe VMS (week 4, without site effect): −44.36 | LS adjusted mean relative change (%) from baseline in weekly frequency of moderate to severe VMS (week 4, without site effect): -66% | LS adjusted mean change from baseline in weekly frequency of moderate to severe VMS [2]: −53.83 | LS adjusted mean relative change (%) from baseline in weekly frequency of moderate to severe VMS [2]: -80.1% | LS adjusted mean change from baseline in weekly frequency of moderate to severe VMS (week 12, without site effect): −54.91 | LS adjusted mean relative change (%) from baseline in weekly frequency of moderate to severe VMS (week 12, without site effect): -82.3% | Mean change from baseline in weekly frequency of moderate to severe VMS (15 mg E4 QD per os, week 1): −14.86 | Relative change (% from baseline) in weekly frequency of moderate to severe VMS, mean (15 mg E4 QD per os, week 1): −22% | Mean change from baseline in weekly frequency of moderate to severe VMS (15 mg E4 QD per os, week 2): −29.19 | Relative change (% from baseline) in weekly frequency of moderate to severe VMS, mean (15 mg E4 QD per os, week 2): −46% | Mean change from baseline in weekly frequency of moderate to severe VMS (15 mg E4 QD per os, week 3): −36.30 | Relative change (% from baseline) in weekly frequency of moderate to severe VMS, mean (15 mg E4 QD per os, week 3): −57%
